In brackets after ≈: the same amount, converted by molar mass.
Columns and labels:
Human betaherpesvirus 5 = assay: Compound was evaluated for the antiviral activity against HCMV; format: functional, organism-based
[1] = Compound was evaluated for its cytotoxicity.; format: functional
Human alphaherpesvirus 1 = assay: Compound was evaluated for the antiviral activity against HSV-1; format: functional, organism-based
Human alphaherpesvirus 2 = assay: Compound was evaluated for the antiviral activity against HSV-2; format: functional, organism-based
[2] = system: Human immunodeficiency virus 1; assay: Compound was evaluated for the antiviral activity against HIV-1; format: functional, organism-based

SMILES	EC50 (Human betaherpesvirus 5)	IC50 [1]	EC50 (Human alphaherpesvirus 1)	EC50 (Human alphaherpesvirus 2)	EC50 [2]
Nc1nc2c(ncn2COC(CO)CO)c(=O)[nH]1 [GANCICLOVIR]	0.74 µg/mL (≈ 2.9 µM)	> 10 µg/mL			
C=C1[C@H](CO)OC[C@@H]1n1cnc2c(O)ncnc21	> 100 µg/mL	> 100 µg/mL	35 µg/mL (≈ 141 µM)	> 100 µg/mL	> 100 µg/mL
C=C1[C@H](CO)OC[C@@H]1n1cnc2c(N)ncnc21	33.3 µg/mL (≈ 135 µM)	> 100 µg/mL	> 100 µg/mL	> 100 µg/mL	> 100 µg/mL
Cc1cn([C@H]2C[C@H](N=[N+]=[N-])[C@@H](CO)O2)c(=O)[nH]c1=O [ZIDOVUDINE]		1 µg/mL (≈ 3.74 µM)			0.00132 µg/mL (≈ 0.00494 µM)
C=C1[C@H](CO)OC[C@@H]1n1cnc2c(O)nc(N)nc21	> 100 µg/mL	> 100 µg/mL	> 100 µg/mL	> 100 µg/mL	> 100 µg/mL
C=C1[C@H](CO)OC[C@@H]1n1ccc(=O)[nH]c1=O	10.6 µg/mL (≈ 47.3 µM)	100 µg/mL (≈ 446 µM)	100 µg/mL (≈ 446 µM)	100 µg/mL (≈ 446 µM)	100 µg/mL (≈ 446 µM)
C=C1[C@H](CO)OC[C@@H]1n1ccc(N)nc1=O	> 100 µg/mL	> 100 µg/mL	> 100 µg/mL	> 100 µg/mL	> 100 µg/mL
Nc1nc2c(ncn2COCCO)c(=O)[nH]1 [ACYCLOVIR]		250 µg/mL (≈ 1110 µM)	1.05 µg/mL (≈ 4.68 µM)	5.12 µg/mL (≈ 22.7 µM)	
